From patent publication US12441726B2, “Compounds and uses thereof” (Foghorn Therapeutics Inc., priority 2020, dated 2025)

Legend:
[1] = tested on: Uveal melanoma cell lines, 92-1 or MP41; assay: Comparison to clinical PKC and MEK inhibitors in uveal melanoma cell lines, 3-day growth (Compound B); type: cell-based; details: FIG. 6A and 6B
Method: (§1) Procedure: Uveal melanoma cell lines, 92-1 or MP41, were plated in 96 well plates in the presence of growth media (see Table 27). […] Cells were incubated at 37° C. for 3 days. After three days of treatment, cell growth was measured with Cell-titer glow (Promega), and luminescence was read on an Envision plate reader (Perkin Elmer).

[2] = tested on: Uveal melanoma cell lines (92-1, MP41, MP38, MP46) and Non-small cell lung cancer cells (NCIH1299); assay: Growth of uveal melanoma and non-small cell lung cancer cell lines, 3 days (Cell-titer glow); type: cell-based; details: 0 to 10 micromolar, FIG. 5
Method: Procedure: Uveal melanoma cell lines (92-1, MP41, MP38, MP46) and Non-small cell lung cancer cells (NCIH1299) were plated into 96 well plates with growth media (see Table 27). BRG1/BRM ATPase inhibitor, compound 67, was dissolved in DMSO and added to the cells in a concentration gradient from 0 to 10 micromolar at the time of plating. Cells were incubated at 37° C. for 3 days. After three days of treatment, cell growth was measured with Cell-titer glow (Promega), and luminescence was read on an Envision plate reader (Perkin Elmer).

[3] = tested on: PKC inhibitor (PKCi)-resistant MP41 uveal melanoma cells; assay: 7-day growth inhibition assay, PKC inhibitor-resistant cells; type: cell-based; details: 7-day assay; FIG. 7B
Method: (§2) Procedure: Uveal melanoma cell lines (92-1, MP41, MP38, MP46), prostate cancer cell lines (LNCAP), lung cancer cell lines (NCI-H1299), and immortalized embryonic kidney lines (HEK293T) were plated into 96 well plates with growth media (see Table 5). […] Cells were incubated at 37 degrees Celsius for 3 days. After three days of treatment, the media was removed from the cells and 30 microliters of TrypLE (Gibco) was added to cells for 10 minutes. Cells were detached from the plates and resuspended with the addition of 170 microliters of growth media. Cells from two DMSO-treated control wells were counted, and the initial number of cells plated at the start of the experiment, were re-plated into fresh-compound containing plates for an additional four days at 37 degrees Celsius. At day 7, cells were harvested as described above. On day 3 and day 7, relative cell growth was measured by the addition of Cell-titer glo (Promega) and luminescence was measured on an Envision plate reader (Perkin Elmer). […] At the time of cell splitting on days […], cells were split into new 96 well plates, and fresh compound was added four hours after re-plating.
(§3) Procedure: MP41 uveal melanoma cells were made resistant to the PKC inhibitor (LXS196; MedChemExpress), by long-term culture in growth media (see Table 27) containing increasing concentrations of the compound, up to 1 micromolar.

parental MP41 cells = assay: 7-day growth inhibition assay, parental cells; type: cell-based; details: 7-day assay; FIG. 7B
Method: as §2, §3

[4] = Body weight / tolerability in tumor-bearing mice; type: in vivo; details: all treatments, once daily oral gavage, 3 weeks; FIG. 8C
Method: Procedure: Nude mice (Envigo) were engrafted subcutaneously in the axillary region with 5×10^6 92-1 uveal melanoma cells in 50% Matrigel. Tumors were grown to a mean of ˜200 mm^3, at which point mice were grouped and dosing was initiated. […] Tumor volumes and body weights were measured over the course of 3 weeks, and doses were adjusted by body weight to achieve the proper dose in terms of mg/kg. At this time, animals were sacrificed, and tumors were dissected and imaged.

[5] = tested on: Uveal melanoma cell lines (92-1, MP41, MP38, MP46), hematologic cancer and other cancer cell lines; assay: Growth of uveal melanoma, hematological and other cancer cell lines, day 3 and day 7 (Cell-titer glo, GI50), Compound A; type: cell-based; details: FIG. 1
Method: as §2

[6] = tested on: Uveal melanoma cell lines, 92-1 or MP41; assay: Comparison to clinical PKC and MEK inhibitors in uveal melanoma cell lines, 3-day growth (Compound A); type: cell-based; details: FIG. 2A and 2B
Method: as §1, with “26).” for “27).”, “37 degrees Celsius” for “37° C.”

CSCC[C@H](NC(=O)c1ccn(S(C)(=O)=O)c1)C(=O)Nc1nc(-c2cccc(-c3ccncc3)c2)cs1 [Compound B, (S)-1-(methylsulfonyl)-N-(4-(methylthio)-1-oxo-1-((4-(3-(pyridin-4-yl)phenyl)thiazol-2-yl)amino)butan-2-yl)-1H-pyrrole-3-carboxamide]
growth inhibition compared to clinical PKC (LXS196) and MEK (Selumetinib) inhibitors ([1]; 3 days, 0 to 10 micromolar): more potent effects on growth inhibition of uveal melanoma cells as compared to the clinical PKC and MEK inhibitors | onset of growth inhibition compared to clinical PKC and MEK inhibitors [1]: faster onset of growth inhibition than the clinical PKC and MEK inhibitors | growth inhibition in the uveal melanoma cell lines [2]: potent growth inhibition | growth inhibition of PKCi-resistant cell line [3]: strong growth inhibition | sensitivity of PKCi-resistant cells relative to parental MP41 cells [3]: more sensitive to Compound B than were the parental MP41 cells | growth inhibition of parental cell line (parental MP41 cells): strong growth inhibition

C[C@@H]1CN(c2cccc(-c3csc(NC(=O)CNC(=O)c4ccn(C(C)(C)C)c4)n3)n2)C[C@H](C)O1 [Compound C, 1-(tert-butyl)-N-(2-((4-(6-(cis-2,6-dimethylmorpholino)pyridin-2-yl)thiazol-2-yl)amino)-2-oxoethyl)-1H-pyrrole-3-carboxamide]
tolerability / body weight change [4]: well tolerated with no body weight loss observed

CSCC[C@H](NC(=O)c1ccc(N)cc1)C(=O)Nc1nc(-c2cccc(-c3ccncc3)c2)cs1 [Compound A]
sensitivity of cell lines to BRG1/BRM inhibition (growth) ([5]; uveal melanoma and hematologic cancer cell lines vs other tested cell lines, 0 to 10 micromolar): more sensitive to BRG1/BRM inhibition than the other tested cell lines | duration of growth inhibition ([5]; uveal melanoma and hematologic cancer cell lines): maintained through day 7 | growth inhibition compared to clinical PKC (LXS196) and MEK (Selumetinib) inhibitors ([6]; 3 days, 0 to 10 micromolar): comparable growth inhibition of uveal melanoma cells as the clinical PKC and MEK inhibitors | onset of inhibition compared to clinical PKC and MEK inhibitors [6]: faster onset of inhibition than the clinical PKC and MEK inhibitors
